Experimental data: ChEMBL document CHEMBL4342495, “Structure-Activity Relationship and Anticancer Profile of Second-Generation Anti-MRSA Synthetic Retinoids” (ACS Med Chem Lett, 2020)
In brackets after ≈: the same amount, converted by molar mass.

Legend:
Staphylococcus aureus [1] = assay: Antibacterial activity against methicillin-resistant Staphylococcus aureus MW2 BAA 1707 assessed as growth inhibition by standard microdilution method; assay type: functional
HepG2 = assay: Cytotoxicity against human HepG2 cells assessed as reduction in cell viability measured after 24 hrs by WST1 assay; assay type: functional; conditions: HepG2, 24 h, read-out: LC50 (the source's name)
[2] = Hemolytic activity against human erythrocytes measured after 1 hr; assay type: ADME, cell-based, Erythrocyte
Staphylococcus aureus [3] = assay: Antibacterial activity against methicillin-resistant Staphylococcus aureus JE2 assessed as growth inhibition by standard microdilution method; assay type: functional
Staphylococcus aureus [4] = assay: Antibacterial activity against methicillin-resistant Staphylococcus aureus ATCC 33591 assessed as growth inhibition by standard microdilution method; assay type: functional
Staphylococcus aureus [5] = assay: Antibacterial activity against vancomycin-resistant Staphylococcus aureus VRS1 assessed as growth inhibition by standard microdilution method; assay type: functional
HeLa = assay: Cytotoxicity against human HeLa cells assessed as reduction in cell viability measured after 24 hrs by WST1 assay; assay type: functional; conditions: read-out: LC50 (the source's name)
Staphylococcus aureus [6] = assay: Antibiofilm activity against methicillin-resistant Staphylococcus aureus MW2 assessed as reduction in number of viable cells by measuring colony forming units at 16 fold MIC relative to control; assay type: functional
Staphylococcus aureus [7] = assay: Antibacterial activity against methicillin-resistant Staphylococcus aureus MW2 assessed as growth inhibition; assay type: functional

Compound	MIC (Staphylococcus aureus [1]) [µg/mL]	CC50 (HepG2)	HC50 at 1 h [2] [µg/mL]	MIC (Staphylococcus aureus [3]) [µg/mL]	MIC (Staphylococcus aureus [4]) [µg/mL]	MIC (Staphylococcus aureus [5]) [µg/mL]	CC50 (HeLa) [µg/mL]	inhibition (INH) (Staphylococcus aureus [6]) [%]	MIC (Staphylococcus aureus [7]) [µg/mL]
CC(C)(C)c1cc(-c2ccc3cc(C(=O)O)ccc3c2)ccc1O	16	9.8 µg/mL	> 64						
OCc1ccc2cc(-c3ccc(O)cc3)ccc2c1	> 64	1700 nM	> 64						
CCCCCC=Cc1cc(-c2ccc3cc(CO)ccc3c2)ccc1O	4	4.19 µg/mL	> 64						
CC12CC3CC(C)(C1)CC(c1cc(-c4ccc5cc(C(=O)O)ccc5c4)ccc1O)(C3)C2	2	1.84 µg/mL	15.2	2	2	2	0.49 (≈ 1.15 µM)		
CCCCCC=Cc1cc(-c2ccc3cc(C(=O)O)ccc3c2)ccc1O	8	2.44 µg/mL	45.4						
CCCCCCCCCc1cc(-c2ccc3cc(C(=O)O)ccc3c2)ccc1O	4	1.73 µg/mL	22.8						
CN[C@H](CC(C)C)C(=O)N[C@H]1C(=O)N[C@@H](CC(N)=O)C(=O)N[C@H]2C(=O)N[C@H]3C(=O)N[C@H](C(=O)N[C@H](C(=O)O)c4cc(O)cc(O)c4-c4cc3ccc4O)[C@H](O)c3ccc(c(Cl)c3)Oc3cc2cc(c3O[C@@H]2O[C@H](CO)[C@@H](O)[C@H](O)[C@H]2O[C@H]2C[C@](C)(N)[C@H](O)[C@H](C)O2)Oc2ccc(cc2Cl)[C@H]1O [VANCOMYCIN]						> 64			
CC12CC3CC(C)(C1)CC(c1cc(-c4ccc5cc(CO)ccc5c4)ccc1O)(C3)C2	8	11.7 µg/mL	> 64						
CCCCCc1cc(-c2ccc3cc(CO)ccc3c2)ccc1O	4	3.27 µg/mL	> 64						
CCCCCCCCCc1cc(-c2ccc3cc(CO)ccc3c2)ccc1O	> 64	7.25 µg/mL	> 64						
Cc1cc(-c2ccc3cc(CO)ccc3c2)ccc1O	> 64	> 32 µg/mL	> 64						
Cc1cc(-c2ccc3cc(C(=O)O)ccc3c2)ccc1O	> 64	> 32 µg/mL	> 64						
CCCCCCCC=Cc1cc(-c2ccc3cc(C(=O)O)ccc3c2)ccc1O	4	2.6 µg/mL	51.5						
CCCCCCCc1cc(-c2ccc3cc(C(=O)O)ccc3c2)ccc1O	4	1.89 µg/mL	> 64				0.6 (≈ 1.66 µM)		
CCCCCc1cc(-c2ccc3cc(C(=O)O)ccc3c2)ccc1O	8	3.26 µg/mL	> 64						
O=C(O)c1ccc2cc(-c3ccc(O)c(C45CC6CC(CC(C6)C4)C5)c3)ccc2c1 [O-DEMETHYLATED ADAPALENE]	1	1.02 µg/mL	> 64	1	1	1	0.21 (≈ 0.527 µM)	90	2 (≈ 5.02 µM)
O=C(O)c1ccc2cc(-c3ccc(O)cc3)ccc2c1	> 64	> 32 µg/mL	> 64						
CC(C)(C)c1cc(-c2ccc3cc(CO)ccc3c2)ccc1O	8	7.5 µg/mL	> 64						
CCCC=Cc1cc(-c2ccc3cc(C(=O)O)ccc3c2)ccc1O	16	5.38 µg/mL	> 64						
CCCC=Cc1cc(-c2ccc3cc(CO)ccc3c2)ccc1O	4	3.89 µg/mL	> 64						
CCCCCCCc1cc(-c2ccc3cc(CO)ccc3c2)ccc1O	4	3.61 µg/mL	> 64						
CCCCCCCC=Cc1cc(-c2ccc3cc(CO)ccc3c2)ccc1O	> 64	5.51 µg/mL	> 64						
